Where two headings read alike, the source gives them in different places.
Experiments:
[1] = test system: mitochondrial respiration (OCR) in intact MiaPaCa-2 cells; test: Intact cell mitochondrial respiration (basal OCR), Seahorse XF-96; format: cell-based, human; conditions: for OCR (pmol/min/µg protein) / OCR (basal, intact cell mitochondrial respiration): intact MiaPaCa-2 cells, mean, n=4; for OCR (pmol/min/µg protein): baseline OCR; for IC50: Homo sapiens, read-out: IC50, inhibition of basal OCR in intact cells
Method: (§1) Mitochondrial oxygen consumption was measured using the Seahorse XF-96 Extracellular Flux Analyzer (Agilent, North Billerica, MA)[3],[33],[67],[68]. To determine the intact cell mitochondrial function of MiaPaCa-2 cells in response to Mito-PEG-ATO analogs, we used the bioenergetic function assay previously described[2],[3]. […] From these measurements, indices of mitochondrial function were determined as previously described[2],[3]. For mitochondrial complex activities assays, after cells were treated with Mito-PEG-ATO analogs for 24 h, the OCR-based assessment of mitochondrial complex activities was carried out on acutely permeabilized cells in the presence of different mitochondrial substrates, i.e., pyruvate/malate for complex I and duroquinol for complex III[3],[32],[34],[69]. Rotenone, malonate, and antimycin A (Sigma-Aldrich, St. Louis, MO) were used as specific inhibitors of mitochondrial complexes I, II, and III, respectively. Briefly, cells that were intact after treatments were immediately permeabilized using the Seahorse XF Plasma Membrane Permeabilizer (Agilent). The mitochondrial complex I-induced OCR was assayed in mannitol and sucrose buffer[69] containing 10 mM pyruvate and 1.5 mM malate (substrates for complex I) and 10 mM malonate (which inhibits complex II activities). The mitochondrial complex III-driven OCR was assayed in a mannitol and sucrose buffer containing 0.5 mM duroquinol (substrate for complex III) as well as 1 µM rotenone and 10 mM malonate (which inhibit both complex I and II activities). The IC50 values were determined as previously reported.

[2] = test system: MiaPaCa-2 cells; test: Cell proliferation (cell confluence), IncuCyte Live-Cell Analysis System; format: cell-based, human; conditions: for IC50: Homo sapiens; for Inhibition of cell proliferation in combination with AZD-3965: combined with AZD-3965
Method: The following cell lines were obtained from the American Type Culture Collection (Manassas, VA), where they were regularly authenticated: MiaPaCa-2 (ATCC Cat# CRL-1420, human pancreatic cancer cells), U87MG (ATCC Cat# HTB-14, human brain cancer cells), A549 (ATCC Cat# CCL-185, lung cancer cells), and HCT-116 (ATCC Cat# CCL-247, colon cancer cells). All cell lines were grown at 37 °C in 5% carbon dioxide. MiaPaCa-2 cells were maintained in Dulbecco's Modified Eagle Medium (Thermo Fisher Scientific, Waltham, MA; Cat# 11965) supplemented with 10% fetal bovine serum. U87MG, A549, and HCT-116 cells were maintained in RPMI 1640 medium (Thermo Fisher Scientific, Cat# 11875), supplemented with 10% fetal bovine serum. All cells were stored in liquid nitrogen and used within 20 passages after thawing.
The IncuCyte Live-Cell Analysis System was used to monitor cell proliferation[3],[33],[67]. As shown in previous publications[3],[67], this imaging system is probe-free and noninvasive, and enables continuous monitoring of cell confluence over several days. The increase in the percentage of cell confluence was used as a surrogate marker of cell proliferation. In a 96-well plate, cells were plated at 1,000 cells per well in triplicates and left to adhere overnight. Cells were then treated with Mito-PEG-ATO analogs, and the cell confluency was recorded over several days in the IncuCyte Live-Cell Analysis System.

[3] = biological target: mitochondrial complex III (MiaPaCa-2 cells) (Homo sapiens, UniProt P00156); test: Complex III-dependent oxygen consumption in permeabilized cells, Seahorse XF-96; format: cell-based
Method: as §1

[4] = MiaPaCa-2 cells, 1 µM, control ~90% confluence
[5] = MiaPaCa-2 cells, 5 µM, control ~90% confluence

Sequence of mitochondrial complex III (MiaPaCa-2 cells) (P00156 whole entry): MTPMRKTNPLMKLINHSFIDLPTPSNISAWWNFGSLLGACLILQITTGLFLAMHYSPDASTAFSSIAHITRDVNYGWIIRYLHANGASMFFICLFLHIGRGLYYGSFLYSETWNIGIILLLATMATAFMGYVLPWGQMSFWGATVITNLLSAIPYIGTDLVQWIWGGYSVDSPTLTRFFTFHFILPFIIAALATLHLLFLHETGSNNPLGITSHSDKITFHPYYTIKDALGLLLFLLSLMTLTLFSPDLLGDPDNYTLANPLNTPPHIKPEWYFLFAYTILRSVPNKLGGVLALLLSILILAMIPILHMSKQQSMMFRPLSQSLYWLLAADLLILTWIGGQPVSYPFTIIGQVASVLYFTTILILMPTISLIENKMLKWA
Sequence of mitochondrial complex III (MiaPaCa-2 cells) (P47985 whole entry partner): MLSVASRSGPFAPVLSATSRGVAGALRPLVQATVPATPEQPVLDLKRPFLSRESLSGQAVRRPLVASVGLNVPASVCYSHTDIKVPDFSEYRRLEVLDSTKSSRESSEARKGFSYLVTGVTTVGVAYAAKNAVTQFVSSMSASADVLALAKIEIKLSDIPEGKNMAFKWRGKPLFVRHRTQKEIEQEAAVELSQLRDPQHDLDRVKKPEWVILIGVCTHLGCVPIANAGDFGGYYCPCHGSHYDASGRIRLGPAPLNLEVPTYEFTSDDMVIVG

With `COCCOCCOCCOCCOC1=C([C@H]2CC[C@H](c3ccc(Cl)cc3)CC2)C(=O)c2ccccc2C1=O` [PEG4-ATO, 2-((2,5,8,11-tetraoxatridecan-13-yl)oxy)-3-(trans-4-(4-chlorophenyl)cyclohexyl)naphthalene-1,4-dione] the “OCR (pmol/min/µg protein)” value ([1]; 1 µM, 24 h treatment) was 14.02 pmol/min/µg protein, the “OCR (pmol/min/µg protein)” value ([1]; 3 µM, 24 h treatment) was 11.47 pmol/min/µg protein and the “OCR (pmol/min/µg protein)” value ([1]; 10 µM, 24 h treatment) was 8.99 pmol/min/µg protein. The “OCR (pmol/min/µg protein)” value ([1]; 15 µM, 24 h treatment) was 8.66 pmol/min/µg protein, the “OCR (pmol/min/µg protein)” value ([1]; 17.5 µM, 24 h treatment) was 8.14 pmol/min/µg protein and the “OCR (pmol/min/µg protein)” value ([1]; 20 µM, 24 h treatment) was 6.77 pmol/min/µg protein. For the same compound, the “OCR (pmol/min/µg protein)” value ([1]; 22.5 µM, 24 h treatment) was 6.79 pmol/min/µg protein, the “OCR (pmol/min/µg protein)” value ([1]; 25 µM, 24 h treatment) was 5.93 pmol/min/µg protein and the “OCR (pmol/min/µg protein)” value ([1]; 30 µM, 24 h treatment) was 6.26 pmol/min/µg protein. For the same compound, the “OCR (pmol/min/µg protein)” value ([1]; 40 µM, 24 h treatment) was 4.53 pmol/min/µg protein, the “OCR (pmol/min/µg protein)” value ([1]; 50 µM, 24 h treatment) was 2.22 pmol/min/µg protein and the IC50 ([1]; MIA PaCa-2, MiaPaCa-2 cells, 24 h treatment) was 22 µM. The IC50 ([2]; MIA PaCa-2, MiaPaCa-2 cells, determined when control cells reached ~90% confluence, read-out: IC50, inhibition of cell proliferation) was 24 µM, the “Cell confluence (% of control)” value [2, 4] was 96.77 % of control and the “Cell confluence (% of control)” value ([2]; MiaPaCa-2 cells, 3 µM, control ~90% confluence) was 98.45 % of control. The “Cell confluence (% of control)” value [2, 5] was 92.22 % of control, the “Cell confluence (% of control)” value ([2]; MiaPaCa-2 cells, 10 µM, control ~90% confluence) was 88.90 % of control and the “Cell confluence (% of control)” value ([2]; MiaPaCa-2 cells, 15 µM, control ~90% confluence) was 79.02 % of control. For the same compound, the “Cell confluence (% of control)” value ([2]; MiaPaCa-2 cells, 20 µM, control ~90% confluence) was 50.78 % of control, the “Cell confluence (% of control)” value ([2]; MiaPaCa-2 cells, 30 µM, control ~90% confluence) was 33.44 % of control and the “Cell confluence (% of control)” value ([2]; MiaPaCa-2 cells, 35 µM, control ~90% confluence) was 24.27 % of control. For the same compound, the “Cell confluence (% of control)” value ([2]; MiaPaCa-2 cells, 40 µM, control ~90% confluence) was 17.96 % of control and the “Cell confluence (% of control)” value ([2]; MiaPaCa-2 cells, 50 µM, control ~90% confluence) was 10.27 % of control.
With `O=C(Cc1cccc(OC(F)(F)F)c1)Nc1ccc(CCCCc2nnc(NC(=O)Cc3ccccn3)s2)nn1` [CB-839, Telaglenastat, reference compound] the IC50 ([2]; MIA PaCa-2, MiaPaCa-2 cells, inhibitor alone, control ~90% confluence, read-out: IC50 (cell proliferation) without Mito-PEG5-ATO) was 19 µM and the “Inhibition of cell proliferation in combination with Mito-PEG5-ATO (combination index)” value ([2]; MiaPaCa-2 cells, combined with Mito-PEG5-ATO) was “exhibits synergy”.
For `[H]/N=C(/N)N/C(=N/[H])NCCc1ccccc1` [phenformin, reference compound], the “Inhibition of cell proliferation in combination with AZD-3965” value ([2]; MiaPaCa-2 cells) was “Synergistic inhibition”.
With `O=C1C(OCCOCCOCCOCCOCCOCCOCCOCCOCC[P+](c2ccccc2)(c2ccccc2)c2ccccc2)=C([C@H]2CC[C@H](c3ccc(Cl)cc3)CC2)C(=O)c2ccccc21.[Br-]` [Mito-PEG9-ATO, (26-((3-(trans-4-(4-chlorophenyl)cyclohexyl)-1,4-dioxo-1,4-dihydronaphthalen-2-yl)oxy)-3,6,9,12,15,18,21,24-octaoxahexacosyl)triphenylphosphonium bromide] the “Complex III activity (OCR, % of control)” value ([3]; 0.003 µM) was 101.6 % of control, the “Complex III activity (OCR, % of control)” value ([3]; 0.01 µM) was 95.6 % of control and the “Complex III activity (OCR, % of control)” value ([3]; 0.03 µM) was 96.5 % of control. The “Complex III activity (OCR, % of control)” value ([3]; 0.05 µM) was 100.1 % of control, the “Complex III activity (OCR, % of control)” value ([3]; 0.1 µM) was 95.3 % of control and the “Complex III activity (OCR, % of control)” value ([3]; 0.2 µM) was 93.6 % of control. The “Complex III activity (OCR, % of control)” value ([3]; 0.3 µM) was 92.1 % of control, the “Complex III activity (OCR, % of control)” value ([3]; 0.4 µM) was 72.1 % of control and the “Complex III activity (OCR, % of control)” value ([3]; 0.5 µM) was 48.1 % of control. The “Complex III activity (OCR, % of control)” value ([3]; 0.75 µM) was 16.6 % of control, the “Complex III activity (OCR, % of control)” value ([3]; 1 µM) was 4.7 % of control and the IC50 ([3]; MiaPaCa-2 cells, 24 h treatment, antimycin A-inhibitable OCR, read-out: IC50, complex III-induced oxygen consumption (Complex III activity)) was 0.5 µM. For the same compound, the “OCR (pmol/min/µg protein)” value ([1]; 0.01 µM, 24 h treatment) was 13.41 pmol/min/µg protein, the “OCR (basal, intact cell mitochondrial respiration)” value ([1]; 0.03 µM, 24 h treatment) was 12.24 pmol/min/µg protein and the “OCR (basal, intact cell mitochondrial respiration)” value ([1]; 0.1 µM, 24 h treatment) was 7.60 pmol/min/µg protein. The “OCR (basal, intact cell mitochondrial respiration)” value ([1]; 0.2 µM, 24 h treatment) was 3.64 pmol/min/µg protein, the “OCR (basal, intact cell mitochondrial respiration)” value ([1]; 0.3 µM, 24 h treatment) was 1.87 pmol/min/µg protein and the “OCR (basal, intact cell mitochondrial respiration)” value ([1]; 0.4 µM, 24 h treatment) was 1.43 pmol/min/µg protein. The “OCR (basal, intact cell mitochondrial respiration)” value ([1]; 0.5 µM, 24 h treatment) was 1.22 pmol/min/µg protein, the “OCR (basal, intact cell mitochondrial respiration)” value ([1]; 1 µM, 24 h treatment) was 1.18 pmol/min/µg protein and the “OCR (basal, intact cell mitochondrial respiration)” value ([1]; 3 µM, 24 h treatment) was 0.96 pmol/min/µg protein. For the same compound, the “OCR (basal, intact cell mitochondrial respiration)” value ([1]; 5 µM, 24 h treatment) was 0.01 pmol/min/µg protein, the IC50 ([1]; MIA PaCa-2, 24 h) was 0.11 µM and the IC50 ([2]; MIA PaCa-2, read-out: IC50, inhibition of cell proliferation) was 0.16 µM. For the same compound, the “Cell confluence (% of control)” value ([2]; MiaPaCa-2 cells, 0.01 µM, control ~90% confluence) was 99.63 % of control, the “Cell confluence (% of control)” value ([2]; MiaPaCa-2 cells, 0.03 µM, control ~90% confluence) was 99.03 % of control and the “Cell confluence (% of control)” value ([2]; MiaPaCa-2 cells, 0.1 µM, control ~90% confluence) was 81.02 % of control. For the same compound, the “Cell confluence (% of control)” value ([2]; MiaPaCa-2 cells, 0.15 µM, control ~90% confluence) was 60.68 % of control, the “Cell confluence (% of control)” value ([2]; MiaPaCa-2 cells, 0.2 µM, control ~90% confluence) was 25.97 % of control and the “Cell confluence (% of control)” value ([2]; MiaPaCa-2 cells, 0.25 µM, control ~90% confluence) was 14.32 % of control. The “Cell confluence (% of control)” value ([2]; MiaPaCa-2 cells, 0.3 µM, control ~90% confluence) was 10.81 % of control, the “Cell confluence (% of control)” value ([2]; MiaPaCa-2 cells, 0.4 µM, control ~90% confluence) was 7.81 % of control and the “Cell confluence (% of control)” value ([2]; MiaPaCa-2 cells, 0.5 µM, control ~90% confluence) was 5.89 % of control. For the same compound, the “Cell confluence (% of control)” value [2, 4] was 4.84 % of control and the “Cell confluence (% of control)” value [2, 5] was 3.30 % of control.
With `CN(C)C(=N)N=C(N)N` [metformin, reference compound] the “Inhibition of cell proliferation in combination with AZD-3965” value ([2]; MiaPaCa-2 cells) was “Synergistic inhibition”.
In the case of `CC(=O)N[C@@H](CS)C(=O)O` [N-acetylcysteine, reference compound], the “Restoration of cell proliferation in cells treated with Mito-PEG5-ATO” value ([2]; 10 mM, cells treated with Mito-PEG5-ATO, not shown) is reported as “did not restore cell proliferation”.
